What was measured:
[1] = system: Kidney beans (variety:Serina); experiment: Phytotoxicity tested at the same time in the foliar spray test; assay type: in vivo; details: active compound concentration of 500 ppm; foliar spray on kidney beans
Procedure: Kidney beans (variety:Serina) were cultivated in plastic pots each having a diameter of 6 cm. The previously prepared solution of the prescribed concentration of active compound was sprayed over the plants in the 1 leaf stage at a rate of 20 ml per pot. One day after spraying, a gel obtained by mixing a suspension of spores of artificially cultured Botrytis cinera and PDA medium was added dropwise to the removed first leaf for infection in a plastic box having a size of 20 while maintaining humidity. 5 days after the inoculation, the infection rate per pot was classified and evaluated according to the following standard, and the control value (%) was calculated. Phytotoxicity was tested at the same time. This test is an average of the results of 3 replications. The evaluation of the infection rate and the calculation method of the control value were conducted as follows: […]

melting point [°C]	Compound	Phytotoxicity [1]
165 to 167	Clc1ccc(Cc2c(Cl)nc3ncnn3c2Cl)cc1 [I-95, 5,7-dichloro-6-(4-chlorobenzyl)[1,2,4]triazolo[1,5-a]pyrimidine]	No phytotoxicity
	FC(F)(F)Oc1ccc(Cc2c(Cl)nc3ncnn3c2Cl)cc1 [I-104]	No phytotoxicity
	Fc1ccc(Cc2c(Cl)nc3ncnn3c2Cl)c(F)c1F [I-6]	No phytotoxicity
	Clc1ccc(Cc2cnc3ncnn3c2Cl)cc1Cl [I-146]	No phytotoxicity
	Fc1cc(F)c(Cc2c(Cl)nc3ncnn3c2Cl)c(F)c1 [I-20]	No phytotoxicity
	Fc1cc(F)c(Cc2c(Cl)nc3ncnn3c2Cl)cc1F [I-18]	No phytotoxicity
	FC(F)(F)c1cccc(Cc2c(Cl)nc3ncnn3c2Cl)c1 [I-73]	No phytotoxicity
	Fc1ccc(F)c(Cc2c(Cl)nc3ncnn3c2Cl)c1F [I-11]	No phytotoxicity
	Clc1cccc(Cc2cnc3ncnn3c2Cl)c1Cl [I-142]	No phytotoxicity
	Clc1nc2ncnn2c(Cl)c1Cc1ccccc1 [I-110]	No phytotoxicity
	CC(c1ccccc1)c1c(Cl)nc2ncnn2c1Cl (stereo not shown) [I-112]	No phytotoxicity
	Cc1ccc(Cc2c(Cl)nc3ncnn3c2Cl)cc1 [I-94]	No phytotoxicity
	Clc1cccc(Cc2c(Cl)nc3ncnn3c2Cl)c1 [I-76]	No phytotoxicity
123 to 127	Clc1c(Cc2ccccc2)cnc2ncnn12 [I-111, 6-benzyl-7-chloro[1,2,4]triazolo[1,5-a]pyrimidine]	
	Cc1cccc(Cc2c(Cl)nc3ncnn3c2Cl)c1 [I-75]	No phytotoxicity

Source: patent US20040063729A1, “Triazolopyrimidines” (priority 2000, published 2004)
